{
  "source": "patent US20200016076A1",
  "about": "“COMPOSITION FOR THE TREATMENT OF DUCHENNE MUSCULAR DYSTROPHY” (Summit (Oxford) Limited, priority 2016, published 2020)",
  "key": {"[1]": {"experiment": "Gravimetric vapour sorption analysis", "type": "physicochemical", "from_the_text": "Form I was subjected to gravimetric vapour sorption analysis, ramping profile from 0 to 90% RH at 10% RH increments."}, "mouse models of DMD": {"test_system": "mouse models of DMD", "details": "with corticosteroids including prednisone, prednisolone and deflazacort; WO2009/019504; cited from earlier work"}, "[2]": {"experiment": "Solubility of ezutromid Form I polymorph in pharmaceutically-acceptable solvents at 20° C. (HPLC of saturated solutions)", "type": "physicochemical", "details": "1-propanol; 4 hours equilibration", "procedure": "In each case, about 25 mg of drug substance was allowed to equilibrate with 250 μL of solvent over 4 hours. The resulting saturated solutions were filtered and analysed by HPLC."}},
  "data": [
    {"smiles": "CCS(=O)(=O)c1ccc2oc(-c3ccc4ccccc4c3)nc2c1", "note": "[ezutromid, 5-(ethylsulfonyl)-2-(naphthalen-2-yl)benzo[d]oxazole]", "values": [
      {"measurement": "Hygroscopicity", "setting": "[1]; based on gravimetric vapour sorption", "value": "not hygroscopic"},
      {"measurement": "Moisture absorbed", "setting": "[1]; up to 90% RH, 0 to 90% RH at 10% RH increments", "value": "no more than 0.25 % by weight"},
      {"measurement": "Reduction of exercise-induced fatigue with corticosteroids", "setting": "mouse models of DMD", "value": "acts in synergy with corticosteroids"},
      {"measurement": "Solubility at 20° C.", "setting": "[2]", "value": 790, "unit": "µg/mL"}
    ]}
  ]
}
